Holding throughout (assay type): in vivo
Assay [1] has as its system ICR male mice. Briefly: Open field test. As to conditions: 60 minutes before testing. The method, then:
This test is based on anxiety behaviors of rodents in the central area of an open field. When a mouse stayed in the central area for a longer period of time, it was deemed that there were more anti-stress, anti-depressant and anti-anxiety effects. ICR male mice (30 g to 35 g) were purchased from Orient Bio Korea Co. (Korea) and allowed to acclimatize for 1 week before being tested in a controlled animal facility (temperature 22±2° C., humidity 55±5%). When treatment began, the weight of the animals was 35±5% g. The test compound for oral administration was dissolved in 30% PEG400 and administered at a dose per body weight of 10 mL/kg 60 minutes before testing. The test compound for intraperitoneal administration was dissolved in 20% Tween80 and administered at a dose per body weight of 10 mL/kg 60 minutes before testing. The control group was provided with a corresponding vehicle. The open field was measured and analyzed by OPTO-VARIMEX instrument (Columbus Instruments, USA). The mouse was placed in the center of the open field, and its behavior was measured for 10 minutes. The open field was divided into 16 equal parts, and the middle area was established as the central area. Locomotor activity was measured using a spontaneous momentum (distance moved in cm), and measurement of anxiety behavior was obtained using the time spent in the central area as an index. In the open field experiment, when the time during which the mouse stayed in the central area was longer, it was evaluated that the symptoms of anxiety were alleviated, and when the time was shorter, the mouse was evaluated to have symptoms of anxiety (Reference; Prut L, Belzung C. 2003. The open field as a paradigm to measure the effects of drugs on anxiety-like behaviors: a review. Eur J Pharmacol. February 28; 463(1-3):3-33.).

Assay [2] concerns rats that gave birth, chronic administration of corticosterone. Briefly: PPD (chronic CORT induced PPD model), forced swim test. The note with it: postpartum depression rat, 30 mg/kg, intraperitoneally 15 minutes before testing. The method, then:
In order to confirm the effect on postpartum depression in rats, the forced swim test was conducted after chronic administration of corticosterone, a depression-causing substance, to rats that gave birth. The forced swim test causes an immobile state by forcing an animal to swim in a confined space. It reflects a state of despair giving up evading such a circumstance. Rats on the 15th day of pregnancy were purchased from Koatech (Korea) and allowed to acclimatize for 1 week before being tested in a controlled animal facility (temperature 22±2° C., humidity 55±5%). […] In the recorded videos, the time during which the animal placed its head on the water and remained still without movement was measured based on the remaining 4 minutes excluding the first 2 minutes. It was evaluated that the lower the value of the immobile posture time, the greater the anti-depressant action (Reference; S. Brummelte et al. Chronic corticosterone during pregnancy and affects maternal care, cell proliferation and depressive-like behavior in the dam. Hormones and Behavior 58 (2010) 769˜779, Porsolt R D, Le Pichon M, Jalfre M. 1997. Depression: a new animal model sensitive to anti-depressant treatments. Nature. April 21; 266(5604):730˜2.).
The result was shown as the standard error of measurement (SEM) of mean value±mean value. Behavioral data were analyzed by one-way ANOVA. […]

In assay [3] the test system is ICR male mice. Briefly: Forced swim test (mouse, mFST). The note with it: for Immobile posture time (sec.)/4 minutes, Treatment: mouse, administered orally 60 minutes before testing. The protocol: In order to determine the anti-depressant effect in rodents, the forced swim test was performed with rats and mice. The forced swim test causes an immobile state by forcing an animal to swim in a confined space. It reflects a state of despair giving up evading such a circumstance. ICR male mice (25 g to 30 g) and Wistar male rats (240 g to 260 g) were purchased from Samtako Bio Korea Co. (Korea) and allowed to acclimatize for 1 week before being tested in a controlled animal facility (temperature 22±2° C., humidity 55±5%). The test compound was dissolved in 20% Tween80 and administered orally 60 minutes before testing. The control group was provided with a corresponding vehicle. […] 15 minutes of forced swimming was performed a day before the experiment. On the day of the experiment, the animal was placed in the cylinder 60 minutes after the administration of the compound and was videotaped for 6 minutes. In the recorded videos, time during which the animal placed its head on the water and remained still without movement was measured based on the remaining 4 minutes excluding the first 2 minutes. It was evaluated that the lower the value of the immobile posture time, the greater the anti-depressant action (Reference; Porsolt R D, Le Pichon M. Jalfre M. 1997. Depression: a new animal model sensitive to antidepressant treatments. Nature. April 21; 266(5604):730-2.).
The result was shown as the standard error of measurement (SEM) of mean value t mean value. Behavioral data were analyzed by one-way ANOVA. For statistical significance, a value of <0.05 was taken (***p<0.001, **p=0.001˜0.01, *p=0.01˜0.05). Data management and statistics were performed using the Prism software of Windows version 4 (GraphPad Softward Co., San Diego, CA, USA).
Based on the results of Table 7, the ED50 value of the compound of Example 2 was calculated and shown in Table 7, and after 30 mg/kg and 60 mg/kg of the compounds of the other remaining examples were administered based on TD50 values to perform the forced swim tests, respectively, the administration doses with protected efficacy and protection % at the corresponding administration doses were shown in Table 7.

The structures appear in SMILES notation. Marks after values point to notes of the source that are not given here.

`CC1(C)O[C@@H](COS(N)(=O)=O)[C@H](c2ccccc2Cl)O1` [Example 2, ((4S,5S)-5-(2-chlorophenyl)-2,2-dimethyl-1,3-dioxolan-4-yl)methyl sulfamate]: the “Spontaneous momentum(cm)/10 minutes, Treatment” value in assay [1] (intraperitoneal, 10 mg/kg) came out at 5038.2 ± 455.9 cm/10 minutes; in assay [1] (intraperitoneal, 30 mg/kg), 4249.4 ± 402.4 cm/10 minutes; in assay [1] (oral, 10 mg/kg), 4997.3 ± 491.6 cm/10 minutes; in assay [1] (oral, 30 mg/kg), 5033.5 ± 233.8 cm/10 minutes. For the same compound, the “Time of staying in central area (sec.)/10 minutes, Treatment” value in assay [1] (intraperitoneal, 10 mg/kg) was 31.6 ± 2.7 sec./10 minutes; in assay [1] (intraperitoneal, 30 mg/kg), 35.6 ± 3.1 sec./10 minutes; in assay [1] (oral, 10 mg/kg) it was 36.6 ± 4.6 sec./10 minutes; in assay [1] (oral, 30 mg/kg), 44.7 ± 3.5 sec./10 minutes. Besides, the “Immobile posture time (sec.)/4 minutes, Treatment” value in assay [2] is 5.07 sec./4 minutes; in assay [3] (10 mg/kg) it was 105.7 ± 6.9** sec./4 minutes; in assay [3] (20 mg/kg), 80.5 ± 8.6** sec./4 minutes; in assay [3] (40 mg/kg) it was 61.2 ± 20.1** sec./4 minutes. In addition, the ED50 (usually the dose that gives a 50% effect, or the effect in half of the subjects) in assay [3] (mouse forced swim test, po) was found to be 23.5 mg/kg.
